Assay results as given in publication PMC8245078, “Development of novel benzofuran-isatin conjugates as potential antiproliferative agents with apoptosis inducing mechanism in Colon cancer” (Journal of Enzyme Inhibition and Medicinal Chemistry, 2021).
Like-named read-outs stand apart in the source and are kept apart here.

Legend:
[1] = system: SF-295; assay type: cell-based, human; conditions: SF-295, five-dose test
[2] = system: NCI-H23; assay type: cell-based; conditions: NCI-H23, five-dose test
[3] = system: OVCAR-8; assay type: cell-based; conditions: OVCAR-8, five-dose test
[4] = system: HCC-2998; assay type: cell-based; conditions: HCC-2998, five-dose test
[5] = system: NCI-H522; assay type: cell-based; conditions: NCI-H522, five-dose test
[6] = system: MDA-MB-435; assay type: cell-based; conditions: MDA-MB-435, five-dose test
[7] = system: DU-145; assay type: cell-based; conditions: Homo sapiens; DU-145, five-dose test
[8] = system: COLO 205; assay type: cell-based; conditions: COLO 205, five-dose test
[9] = system: Full panel of NCI cancer cell lines; assay type: cell-based
[10] = system: NCI-H226; assay type: cell-based; conditions: Homo sapiens, NCI-H226, five-dose test
[11] = system: HCT-15; assay type: cell-based; conditions: HCT-15, five-dose test
[12] = system: HOP-62; assay type: cell-based; conditions: HOP-62, five-dose test
[13] = system: OVCAR-5; assay type: cell-based; conditions: Homo sapiens; OVCAR-5, five-dose test; read-out: LC50 (the source's name)
[14] = Homo sapiens, read-out: LC50 (the source's name)

COc1ccc2c(c1)/C(=N/NC(=O)c1oc3ccccc3c1C)C(=O)N2 [Compound 5d]
GI50 ([1]; Homo sapiens): 2.03 µM | TGI [1]: 4.13 µM | GI50 ([2]; Homo sapiens): 1.86 µM | LC50 ([2]; Homo sapiens): > 100 µM | TGI [2]: 4.43 µM | GI50 ([3]; Homo sapiens): 3.22 µM | LC50 ([3]; Homo sapiens): > 100 µM | TGI [3]: >100 µM | TGI [4]: >100 µM | CC50 [4, 14]: > 100 µM | GI50 ([5]; Homo sapiens): 6.07 µM | LC50 (concentration killing 50% of cells) ([5]; Homo sapiens): > 100 µM | TGI [5]: >100 µM | CC50 [6, 14]: > 100 µM | TGI [6]: >100 µM | LC50 [7]: > 100 µM | TGI [8]: >100 µM | LC50 (concentration killing 50% of cells) ([8]; Homo sapiens): > 100 µM | LC50 ([9]; Homo sapiens, all cancer cell lines examined except HOP-62, SNB-75 and SK-MEL-2): > 100 µM | GI50 ([9]; Homo sapiens, all examined cancer cell subpanels except HL60(TB), read-out: GI50 values range): 1.25 to 6.07 µM | GI50 ([9]; Homo sapiens, average sensitivity for all cell lines, read-out: Full panel MG-MID (GI50)): 2.51 µM | selectivity index range over subpanels ([9]; all tested subpanels): 0.78 to 1.30 | TGI ([9]; entire Leukaemia, Colon cancer and Prostate Cancer and the remaining examined cancer cell lines): more than 100 µM | GI50 [10]: 2.19 µM | CC50 ([10]; read-out: LC50 (the source's name)): > 100 µM | TGI [11]: >100 µM | LC50 ([11]; Homo sapiens): > 100 µM | TGI [12]: 4.02 µM | GI50 ([12]; Homo sapiens): 1.92 µM | CC50 [12, 14]: 8.44 µM | CC50 [13]: > 100 µM
